The target in one assay is T1, GSK3ALPHA (Homo sapiens, UniProt P49840).
T1 construct: purchased Millipore
Nature of the assay: Millipore kinase panel. Conditions: read-out: % Control. The assay is classed as biochemical.

The target of another assay is T2, PKCETA (Homo sapiens, UniProt P24723).
T2 construct: purchased Millipore KinaseProfiler (kinases); Cerep (receptors and ion channels)
Nature of the assay: Millipore kinase panel. The class given is biochemical. The note with it: read-out: % Control.

For another assay, the target named is T3, CK2ALPHA2 (Homo sapiens, UniProt P19784).
T3 construct: purchased Millipore KinaseProfiler (kinases); Cerep (receptors and ion channels)
Nature of the assay: Millipore kinase panel. The assay is classed as biochemical. Conditions: read-out: % Control.

The next assay deals with T4, CAMKIIGAMMA (Homo sapiens, UniProt Q13555).
T4 construct: purchased Millipore KinaseProfiler (kinases); Cerep (receptors and ion channels)
T4 sequence (Q13555 whole entry): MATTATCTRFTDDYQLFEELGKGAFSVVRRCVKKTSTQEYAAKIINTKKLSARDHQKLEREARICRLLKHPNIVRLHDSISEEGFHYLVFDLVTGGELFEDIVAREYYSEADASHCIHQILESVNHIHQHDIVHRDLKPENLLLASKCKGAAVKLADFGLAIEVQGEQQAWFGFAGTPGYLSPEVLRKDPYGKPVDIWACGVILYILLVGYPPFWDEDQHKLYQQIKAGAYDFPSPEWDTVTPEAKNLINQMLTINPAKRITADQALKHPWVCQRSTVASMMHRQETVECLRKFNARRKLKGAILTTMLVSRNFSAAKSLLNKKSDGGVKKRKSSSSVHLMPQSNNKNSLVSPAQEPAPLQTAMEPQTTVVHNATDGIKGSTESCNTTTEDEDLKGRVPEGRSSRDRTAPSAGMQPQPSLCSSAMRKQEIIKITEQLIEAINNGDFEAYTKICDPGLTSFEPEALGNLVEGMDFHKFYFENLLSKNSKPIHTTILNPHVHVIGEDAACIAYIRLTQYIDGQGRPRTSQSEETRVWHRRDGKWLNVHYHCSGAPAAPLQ
Nature of the assay: Millipore kinase panel. The class given is biochemical. The note with it: read-out: % Control.

The target in the next assay is T5, TIE2(Y897S) (Homo sapiens, UniProt Q02763, Y897S).
T5 construct: purchased Millipore KinaseProfiler (kinases); Cerep (receptors and ion channels)
T5 sequence (Q02763 23-1124 Y897S): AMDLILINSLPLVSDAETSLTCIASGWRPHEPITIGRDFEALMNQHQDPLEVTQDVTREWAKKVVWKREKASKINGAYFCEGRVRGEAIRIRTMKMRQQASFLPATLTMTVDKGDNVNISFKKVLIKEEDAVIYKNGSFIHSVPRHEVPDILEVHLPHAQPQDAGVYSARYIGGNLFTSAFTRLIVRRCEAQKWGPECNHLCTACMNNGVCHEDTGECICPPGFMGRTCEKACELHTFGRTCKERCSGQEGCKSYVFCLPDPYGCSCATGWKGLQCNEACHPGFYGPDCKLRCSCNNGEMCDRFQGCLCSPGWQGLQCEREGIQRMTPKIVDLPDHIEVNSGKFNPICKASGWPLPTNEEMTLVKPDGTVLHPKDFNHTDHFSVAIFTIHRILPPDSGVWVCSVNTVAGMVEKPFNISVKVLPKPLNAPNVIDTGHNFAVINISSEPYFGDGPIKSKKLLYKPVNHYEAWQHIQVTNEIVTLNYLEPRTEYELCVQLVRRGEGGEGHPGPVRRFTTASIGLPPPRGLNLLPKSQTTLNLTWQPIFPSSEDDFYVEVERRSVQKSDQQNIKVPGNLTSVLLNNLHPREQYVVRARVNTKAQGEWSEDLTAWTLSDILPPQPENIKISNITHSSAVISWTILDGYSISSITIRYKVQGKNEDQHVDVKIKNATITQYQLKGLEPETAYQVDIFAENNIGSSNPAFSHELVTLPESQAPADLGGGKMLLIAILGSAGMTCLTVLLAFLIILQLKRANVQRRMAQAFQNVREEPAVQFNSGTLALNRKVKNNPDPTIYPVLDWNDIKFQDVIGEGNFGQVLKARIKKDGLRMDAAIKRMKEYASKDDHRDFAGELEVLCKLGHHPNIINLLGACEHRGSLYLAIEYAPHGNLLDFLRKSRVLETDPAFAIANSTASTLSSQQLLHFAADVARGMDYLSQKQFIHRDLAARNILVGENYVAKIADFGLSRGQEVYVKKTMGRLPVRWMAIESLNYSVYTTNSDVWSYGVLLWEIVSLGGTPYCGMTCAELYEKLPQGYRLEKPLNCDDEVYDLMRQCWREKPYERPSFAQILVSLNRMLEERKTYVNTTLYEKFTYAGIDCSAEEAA
Nature of the assay: Millipore kinase panel. The assay is classed as biochemical. The note with it: read-out: % Control.

In a further assay the target is T6, PEK (Homo sapiens, UniProt Q9NZJ5).
T6 construct: purchased Millipore KinaseProfiler (kinases); Cerep (receptors and ion channels)
T6 sequence (Q9NZJ5 30-1116): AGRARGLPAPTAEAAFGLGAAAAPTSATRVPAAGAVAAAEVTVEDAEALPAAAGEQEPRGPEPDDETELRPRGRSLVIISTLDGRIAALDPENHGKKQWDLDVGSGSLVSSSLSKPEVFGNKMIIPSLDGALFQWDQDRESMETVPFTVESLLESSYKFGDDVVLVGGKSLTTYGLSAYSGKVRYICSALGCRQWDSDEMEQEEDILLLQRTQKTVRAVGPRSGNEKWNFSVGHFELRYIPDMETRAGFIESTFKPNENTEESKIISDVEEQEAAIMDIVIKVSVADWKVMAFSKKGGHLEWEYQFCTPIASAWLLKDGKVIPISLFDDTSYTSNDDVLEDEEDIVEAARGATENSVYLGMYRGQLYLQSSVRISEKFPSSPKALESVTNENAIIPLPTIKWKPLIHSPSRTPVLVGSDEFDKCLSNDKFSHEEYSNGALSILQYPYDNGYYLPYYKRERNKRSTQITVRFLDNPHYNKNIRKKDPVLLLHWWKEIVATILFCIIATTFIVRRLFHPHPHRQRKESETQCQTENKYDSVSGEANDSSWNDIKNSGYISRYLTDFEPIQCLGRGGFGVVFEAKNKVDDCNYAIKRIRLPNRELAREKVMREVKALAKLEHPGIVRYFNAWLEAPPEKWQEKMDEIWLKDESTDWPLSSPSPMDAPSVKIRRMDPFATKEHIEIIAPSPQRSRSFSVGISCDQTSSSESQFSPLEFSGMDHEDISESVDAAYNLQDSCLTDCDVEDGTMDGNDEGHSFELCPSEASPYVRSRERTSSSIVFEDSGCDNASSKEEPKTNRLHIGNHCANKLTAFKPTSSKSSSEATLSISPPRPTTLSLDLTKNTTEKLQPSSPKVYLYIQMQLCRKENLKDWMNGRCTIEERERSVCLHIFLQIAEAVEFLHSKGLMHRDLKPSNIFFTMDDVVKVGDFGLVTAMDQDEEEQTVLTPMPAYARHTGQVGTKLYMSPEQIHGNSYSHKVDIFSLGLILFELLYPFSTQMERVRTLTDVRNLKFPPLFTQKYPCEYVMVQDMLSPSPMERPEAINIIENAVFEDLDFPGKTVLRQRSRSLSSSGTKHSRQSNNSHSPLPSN
Nature of the assay: Millipore kinase panel. The assay is classed as biochemical. Conditions: read-out: % Control.

Another assay has as its target T7, RET (V804L) (Homo sapiens, UniProt P07949, V804L).
T7 construct: purchased Millipore KinaseProfiler (kinases); Cerep (receptors and ion channels)
Nature of the assay: Millipore kinase panel. The class given is biochemical. Conditions: read-out: % Control.

Another assay concerns the target CYP450 2D6 (Homo sapiens, UniProt P10635). Nature of the assay: CYP450 inhibition. The class given is in vitro ADME.
In another assay the target is CYP450 2C19 (Homo sapiens, UniProt P33261). Nature of the assay: CYP450 inhibition. The class given is in vitro ADME.
For another assay, the target named is T8, BTK(R28H) (Homo sapiens, UniProt Q06187, R28H).
T8 construct: purchased Millipore KinaseProfiler (kinases); Cerep (receptors and ion channels)
Nature of the assay: Millipore kinase panel. The class given is biochemical. Conditions: read-out: % Control.

Another assay has as its target T9, PKCDELTA (Homo sapiens, UniProt Q05655).
T9 construct: purchased Millipore KinaseProfiler (kinases); Cerep (receptors and ion channels)
Briefly: Millipore kinase panel. The class given is biochemical. Conditions: read-out: % Control.

The next assay addresses T10, SAPK2A(T106M) (Homo sapiens, UniProt Q16539, T106M).
T10 construct: purchased Millipore KinaseProfiler (kinases); Cerep (receptors and ion channels)
Nature of the assay: Millipore kinase panel. The note with it: read-out: % Control. The class given is biochemical.

The next assay has as its target T11, EGFR(L861Q) (Homo sapiens, UniProt P00533, L861Q).
T11 construct: purchased Millipore KinaseProfiler (kinases); Cerep (receptors and ion channels)
Nature of the assay: Millipore kinase panel. The assay is classed as biochemical. The note with it: read-out: % Control.

In another assay the target is T12, CKIT(D816H) (Homo sapiens, UniProt P10721, D816H).
T12 construct: purchased Millipore KinaseProfiler (kinases); Cerep (receptors and ion channels)
Nature of the assay: Millipore kinase panel. The assay is classed as biochemical. The note with it: read-out: % Control.

The next assay concerns the target T13, PI3K GAMMA (Homo sapiens, UniProt P48736).
T13 construct: purchased Millipore KinaseProfiler (kinases); Cerep (receptors and ion channels)
Briefly: Millipore kinase panel. The class given is biochemical. The note with it: read-out: % Control.

A further assay has as its target T14, CAMKIIDELTA (Homo sapiens, UniProt Q13557).
T14 construct: purchased Millipore KinaseProfiler (kinases); Cerep (receptors and ion channels)
Nature of the assay: Millipore kinase panel. The class given is biochemical. The note with it: read-out: % Control.

Another assay has as its target T15, FGFR2(N549H) (Homo sapiens, UniProt P21802, N549H).
T15 construct: purchased Millipore KinaseProfiler (kinases); Cerep (receptors and ion channels)
Briefly: Millipore kinase panel. The class given is biochemical. The note with it: read-out: % Control.

The target of the next assay is T16, CDK2/CYCLINE (Homo sapiens, UniProt P24941).
T16 construct: purchased Millipore KinaseProfiler (kinases); Cerep (receptors and ion channels)
Briefly: Millipore kinase panel. The assay is classed as biochemical. The note with it: read-out: % Control.

Bounds are passed on as bounds.

T7 sequence (P07949 29-1114 V804L): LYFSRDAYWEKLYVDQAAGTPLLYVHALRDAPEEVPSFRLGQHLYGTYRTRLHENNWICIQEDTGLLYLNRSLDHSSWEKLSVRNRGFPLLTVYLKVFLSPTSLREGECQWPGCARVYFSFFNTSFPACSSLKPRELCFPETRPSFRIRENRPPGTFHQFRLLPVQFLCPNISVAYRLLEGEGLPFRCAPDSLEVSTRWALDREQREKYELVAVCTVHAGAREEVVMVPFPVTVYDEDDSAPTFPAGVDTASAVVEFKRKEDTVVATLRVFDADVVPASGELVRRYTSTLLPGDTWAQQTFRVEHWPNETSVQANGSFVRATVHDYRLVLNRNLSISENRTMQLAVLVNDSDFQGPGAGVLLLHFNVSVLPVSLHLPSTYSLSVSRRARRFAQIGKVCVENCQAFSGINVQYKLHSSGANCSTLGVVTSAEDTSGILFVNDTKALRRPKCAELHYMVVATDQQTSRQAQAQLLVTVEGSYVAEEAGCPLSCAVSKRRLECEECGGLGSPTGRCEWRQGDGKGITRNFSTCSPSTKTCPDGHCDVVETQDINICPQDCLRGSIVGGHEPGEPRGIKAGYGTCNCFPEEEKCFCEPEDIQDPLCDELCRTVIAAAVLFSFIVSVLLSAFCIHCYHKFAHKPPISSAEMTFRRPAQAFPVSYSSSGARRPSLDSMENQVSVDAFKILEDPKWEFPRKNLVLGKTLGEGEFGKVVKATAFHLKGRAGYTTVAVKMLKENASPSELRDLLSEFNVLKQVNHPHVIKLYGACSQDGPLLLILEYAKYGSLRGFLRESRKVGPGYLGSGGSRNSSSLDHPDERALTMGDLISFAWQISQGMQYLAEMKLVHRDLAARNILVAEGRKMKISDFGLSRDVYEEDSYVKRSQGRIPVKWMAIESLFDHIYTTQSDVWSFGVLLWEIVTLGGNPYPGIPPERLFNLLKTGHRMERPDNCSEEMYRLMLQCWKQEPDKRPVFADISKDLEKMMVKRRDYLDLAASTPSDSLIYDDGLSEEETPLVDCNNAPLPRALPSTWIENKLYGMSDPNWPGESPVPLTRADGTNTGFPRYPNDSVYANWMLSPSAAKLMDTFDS
T9 sequence (Q05655 whole entry): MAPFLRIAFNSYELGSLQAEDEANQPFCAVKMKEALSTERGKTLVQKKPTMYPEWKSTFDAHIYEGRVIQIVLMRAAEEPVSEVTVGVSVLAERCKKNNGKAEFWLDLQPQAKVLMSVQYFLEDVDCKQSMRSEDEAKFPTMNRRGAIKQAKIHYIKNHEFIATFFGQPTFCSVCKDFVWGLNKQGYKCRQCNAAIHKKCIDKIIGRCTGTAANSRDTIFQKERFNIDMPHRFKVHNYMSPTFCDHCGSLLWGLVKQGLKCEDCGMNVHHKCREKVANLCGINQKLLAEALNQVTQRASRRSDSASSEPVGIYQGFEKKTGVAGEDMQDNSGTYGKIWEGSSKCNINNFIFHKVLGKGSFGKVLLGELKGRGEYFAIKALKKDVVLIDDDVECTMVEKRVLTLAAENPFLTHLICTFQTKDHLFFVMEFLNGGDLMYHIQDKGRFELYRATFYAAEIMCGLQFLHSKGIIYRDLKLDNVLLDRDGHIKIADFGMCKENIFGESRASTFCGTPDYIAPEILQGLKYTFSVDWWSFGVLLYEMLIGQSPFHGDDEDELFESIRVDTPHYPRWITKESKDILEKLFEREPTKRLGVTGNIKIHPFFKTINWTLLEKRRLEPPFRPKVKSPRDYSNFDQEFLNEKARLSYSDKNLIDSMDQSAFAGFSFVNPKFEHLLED
Sequence of CYP450 2D6 (P10635 whole entry): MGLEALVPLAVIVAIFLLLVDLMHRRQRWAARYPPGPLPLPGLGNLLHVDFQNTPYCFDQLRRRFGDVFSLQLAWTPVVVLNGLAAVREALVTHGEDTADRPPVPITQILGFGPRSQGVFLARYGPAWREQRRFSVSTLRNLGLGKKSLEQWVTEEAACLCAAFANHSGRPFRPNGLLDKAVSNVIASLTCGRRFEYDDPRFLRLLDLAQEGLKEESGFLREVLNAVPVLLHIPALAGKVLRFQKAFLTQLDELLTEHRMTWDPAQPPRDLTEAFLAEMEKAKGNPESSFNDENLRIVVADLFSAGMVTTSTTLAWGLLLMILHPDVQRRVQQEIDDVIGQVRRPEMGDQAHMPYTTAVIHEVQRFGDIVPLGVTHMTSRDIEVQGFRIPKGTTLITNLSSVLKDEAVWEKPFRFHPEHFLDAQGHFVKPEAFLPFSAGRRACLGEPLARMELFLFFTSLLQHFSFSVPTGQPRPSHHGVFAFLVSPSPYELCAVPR

Consider `O=C1NCCC12CCN(c1c(Cl)cncc1-c1ccc(N3CCOCC3)cc1)CC2` [Compound 44, 8-(3-Chloro-5-(4-morpholin-4-ylphenyl)pyridin-4-yl)-2,8-diazaspiro[4.5]decan-1-one], for which the remaining activity at 1 µM on GSK3ALPHA was -39%.
For `Cn1cc(-c2ccc(-c3cncc(Cl)c3N3CCC4(CCNC4=O)CC3)cc2)cn1` [Compound 74, 8-(3-Chloro-5-(4-(1-methyl-1H-pyrazol-4-yl)phenyl)pyridin-4-yl)-2,8-diazaspiro[4.5]decan-1-one], the remaining activity at 1 µM on PKCETA is -13%; at CK2ALPHA2, -1%; on CAMKIIGAMMA, 1%; at TIE2(Y897S), 4%; at PEK, 8%; on RET (V804L), -8%. For the same molecule, the remaining activity at 1 µM at BTK(R28H) is -4%; on PKCDELTA, -37%; at SAPK2A(T106M), -8%; on EGFR(L861Q), 0%; on CKIT(D816H), -7%; at PI3K GAMMA it was 2%. Besides, the remaining activity at 1 µM on CAMKIIDELTA is 4%; at FGFR2(N549H), 1%; on CDK2/CYCLINE it was -14%. Also, the IC50 (as a rule, the midpoint of a concentration-inhibition curve) on CYP450 2D6 is more than 20 µM; on CYP450 2C19, 8 µM.

Values taken from article PMC4767141, “Discovery of Potent, Orally Bioavailable, Small-Molecule Inhibitors of WNT Signaling from a Cell-Based Pathway Screen” (Journal of Medicinal Chemistry, 2015).
